Measured values from patent US20150258104A1, “USE OF N[…] THE TREATMENT OF PAIN” (DemeRX, Inc., priority 2014, published 2015).

Experiments:
[1] = Pharmacokinetics of noribogaine in healthy volunteers, ascending single oral dose (plasma); details: mean, n = 6; for CL/F: fasted, plasma
[2] = Pharmacokinetics in opioid-dependent patients, Phase IB study, single dose; details: human, serum; for half-life / Vd/F: opioid-dependent patients
[3] = Pupillometry (pupillary miosis) in healthy volunteers; type: in vivo, human; details: 3-60 mg, p>0.9
Method: (§1) Pulse oximetry and capnography data were collected continuously using a GE Carescape B650 monitoring system from 2 hours prior to dosing and until six hours after dosing, and thereafter at 12, 24, 48 and 72 hours post-dosing. […] Pupillary miosis was assessed by pupillometry.
Summary statistics (means, standard deviations, and coefficients of variation) were determined for each dose group for safety laboratory test data, ECG and pharmacokinetic parameters, and pharmacodynamic variables. Categorical variables were analysed using counts and percentages. Dose-proportionality of AUC and Cmax was assessed using linear regression. The effect of dose on pharmacodynamic parameter values over time was assessed using two-factor analysis of variance (ANOVA). Pairwise comparisons (with Tukey-Kramer adjustment) between each dose group to the placebo were conducted at each time point using the least squares estimates obtained from the ANOVA, using SAS Proc Mixed (SAS ver 6.0).

[4] = Cold pressor test in healthy volunteers; type: in vivo, human
Method: Analgesic effect was assessed based on duration of hand immersion in ice water and on visual analog scale (VAS) pain scores upon hand removal from the water bath.
(§2) Safety and tolerability of noribogaine were tested in the group of volunteers from Example 1. […] Safety evaluations included clinical monitoring, recording of adverse events (AEs), safety laboratory tests, vital signs, ECG telemetry from −2 h to 6 h after dosing, and 12-lead electrocardiograms (ECGs) up to 216 hours post-dosing.

[5] = Efficacy in opioid-dependent patients: time to resumption of OST and withdrawal scales (COWS, SOWS, OOWS); type: in vivo, human
Method: The efficacy of noribogaine in humans was evaluated in opioid-dependent participants in a randomized, placebo-controlled, double-blind trial. […] See U.S. application Ser. No. 14/214,157, filed Mar. 14, 2014 and Ser. No. 14/346,655, filed Mar. 21, 2014, which are incorporated herein by reference in their entireties.
Three cohorts of nine (9) subjects (6 administered noribogaine and 3 administered placebo in each cohort) were evaluated for tolerability, pharmacokinetics, and efficacy. Cohort 1 received a single dose of 60 mg noribogaine or placebo. Cohort 2 received a single dose of 120 mg noribogaine or placebo. Cohort 3 received a single dose of 180 mg noribogaine or placebo. […] Headaches were frequent in the placebo and 60 mg noribogaine treatment groups, but were attenuated in the 120 mg and 180 mg dose groups.
Patients were evaluated based on the Clinical Opiate Withdrawal Scale (COWS), Subjective Opiate Withdrawal Scale (SOWS), and Objective Opiate Withdrawal Scale (OOWS) scoring systems over the period of time between administration of noribogaine (or placebo) until resumption of OST. These scales are outlined in Guidelines for the Psychosocially Assisted Pharmacological Treatment of Opioid Dependence, World Health Organization, Geneva (2009), Annex 10, which is incorporated herein by reference in its entirety. The scales measure the intensity of withdrawal symptoms, based on clinical, subjective, and objective indicia.

[6] = Safety and tolerability of noribogaine in healthy humans; type: in vivo, human
Method: as §1, §2

[7] = Treatment emergent adverse events in opioid-dependent patients
[8] = metabolite in plasma after single oral 30 mg noribogaine
[9] = metabolite in plasma after single oral 60 mg noribogaine
[10] = 60 mg, mean ± SD, Cohort 1 (60 mg)
[11] = 120 mg, range, Cohort 2 (120 mg)
[12] = 180 mg, range, Cohort 3 (180 mg)

**Q.** Which AUC0-216 [1, 8] does the source give for `CC[C@H]1C[C@@H]2C[C@H]3c4[nH]c5ccc(OC6OC(C(=O)O)C(O)C(O)C6O)cc5c4CCN(C2)[C@@H]13` (stereo partly shown) [noribogaine glucuronide] here?
**A.** The AUC0-216 was 25.7 ng·h/mL.

**Q.** And the “AUC0-∞” value [1, 8]?
**A.** Its value is 25.8 ng·h/mL.

**Q.** And the Cmax [1, 8]?
**A.** The Cmax was 1.8 ng/mL.

**Q.** And the Tmax [1, 8]?
**A.** The Tmax was 3.0 h.

**Q.** And the t1/2 [1, 8]?
**A.** The t1/2 was 20.6 h.

**Q.** And the AUC0-216 [1, 9]?
**A.** Its AUC0-216 is 65.0 ng·h/mL.

**Q.** What about the “AUC0-∞” value [1, 9] of the same compound?
**A.** Its value is 67.1 ng·h/mL.

**Q.** And the Cmax [1, 9]?
**A.** The Cmax was 4.1 ng/mL.

**Q.** What about the Tmax [1, 9] of the same compound?
**A.** Its Tmax is 3.8 h.

**Q.** What about the t1/2 [1, 9] of the same compound?
**A.** The t1/2 was 23.1 h.

**Q.** With `CC[C@H]1CC2C[C@H]3c4[nH]c5ccc(O)cc5c4CCN(C2)C13` [noribogaine] as the compound, how does the CL/F ([1]; single oral 3 mg) read?
**A.** The CL/F was 41.4 L/h.

**Q.** What about the CL/F ([1]; single oral 10 mg) of the same compound?
**A.** Its CL/F is 42.3 L/h.

**Q.** What about the CL/F ([1]; single oral 30 mg) of the same compound?
**A.** Its CL/F is 46.9 L/h.

**Q.** What about the CL/F ([1]; single oral 60 mg) of the same compound?
**A.** Its CL/F is 34.0 L/h.

**Q.** What about the AUC ([2]; 60 mg) of the same compound?
**A.** Its AUC is 1120 to 2550 ng·h/mL.

**Q.** What about the AUC(0-t) ([2]; 60 mg) of the same compound?
**A.** Its AUC(0-t) is 1090 to 2530 ng·h/mL.

**Q.** What about the Cmax ([2]; 60 mg) of the same compound?
**A.** The Cmax was 41.3 to 113 ng/mL.

**Q.** And the Tmax ([2]; 60 mg)?
**A.** Its Tmax is 2.5 to 5 h.

**Q.** And the half-life [2, 10]?
**A.** The half-life was 29.3 ± 7.28 h.

**Q.** What about the half-life ([2]; 60 mg, range, Cohort 1 (60 mg)) of the same compound?
**A.** Its half-life is 18.3 to 37.3 h.

**Q.** What about the Vd/F [2, 10] of the same compound?
**A.** Its Vd/F is 1440 ± 854 L.

**Q.** What about the Vd/F ([2]; 60 mg, range, Cohort 1 (60 mg)) of the same compound?
**A.** Its Vd/F is 620 to 2770 L.

**Q.** What about the AUC ([2]; 120 mg) of the same compound?
**A.** Its AUC is 1600 to 5770 ng·h/mL.

**Q.** What about the AUC(0-t) ([2]; 120 mg) of the same compound?
**A.** The AUC(0-t) was 1560 to 5640 ng·h/mL.

**Q.** What about the Cmax ([2]; 120 mg) of the same compound?
**A.** The Cmax was 139 to 230 ng/mL.

**Q.** What about the Tmax ([2]; 120 mg) of the same compound?
**A.** Its Tmax is 0.98 to 4.02 h.

**Q.** And the half-life [2, 11]?
**A.** The half-life was 21.9 to 48.3 h.

**Q.** And the Vd/F [2, 11]?
**A.** Its Vd/F is 824 to 5240 L.

**Q.** And the AUC ([2]; 180 mg)?
**A.** Its AUC is 3730 to 12300 ng·h/mL.

**Q.** What about the AUC(0-t) ([2]; 180 mg) of the same compound?
**A.** Its AUC(0-t) is 3720 to 10400 ng·h/mL.

**Q.** What about the Cmax ([2]; 180 mg) of the same compound?
**A.** Its Cmax is 205 to 338 ng/mL.

**Q.** What about the Tmax ([2]; 180 mg) of the same compound?
**A.** The Tmax was 3 to 8 h.

**Q.** What about the half-life [2, 12] of the same compound?
**A.** Its half-life is 19.3 to 34.9 h.

**Q.** And the Vd/F [2, 12]?
**A.** Its Vd/F is 581 to 1610 L.

**Q.** What about the “pupil diameter, each dose group versus placebo (ANOVA, baseline adjusted)” value [3] of the same compound?
**A.** Its value is “no statistically significant differences”.

**Q.** And the “duration of hand immersion, each dose group versus placebo (ANOVA)” value ([4]; ice water, p>0.9)?
**A.** Its value is “no statistically significant differences”.

**Q.** And the “VAS pain scores, each dose group versus placebo (ANOVA)” value ([4]; upon hand removal, p=0.17)?
**A.** The value was “no statistically significant differences”.

**Q.** And the “withdrawal symptoms (COWS, OOWS, SOWS), first six hours after dosing” value ([5]; 120 mg)?
**A.** Its value is “fewer withdrawal symptoms than the other patients”.

**Q.** And the “time to resumption of OST, compared with untreated patients” value ([5]; 180 mg, also longer than 60 mg group)?
**A.** Its value is greater than 7 h.

**Q.** What about the “withdrawal symptoms (COWS, OOWS, SOWS), noribogaine versus placebo” value ([5]; 60, 120, 180 mg) of the same compound?
**A.** Its value is “Patients administered placebo generally experienced more withdrawal symptoms than patients who were administered noribogaine”.

**Q.** What about the adverse events reported ([6]; 3 mg dose group, by two subjects) of the same compound?
**A.** Its adverse events reported is “five”.

**Q.** And the adverse events reported ([6]; 10 mg dose group, single subject)?
**A.** The adverse events reported was “one”.

**Q.** And the adverse events reported ([6]; 30 mg dose group, single subject)?
**A.** Its adverse events reported is “one”.

**Q.** And the “intensity of adverse events” value ([6]; all dose groups, all resolved prior to study completion)?
**A.** The value was “mild-moderate”.

**Q.** What about the headaches ([7]; 60 mg treatment group) of the same compound?
**A.** Its headaches is “frequent”.

**Q.** And the headaches ([7]; 120 mg and 180 mg dose groups)?
**A.** Its headaches is “attenuated”.
